By IC50 is commonly meant the concentration needed to halve the response being measured. A low value points to greater potency in that assay.

Residues, ends and D or L forms follow the SMILES beside them. *: point of attachment. X1 = CC(C)CCC[C@@H](C)[C@H]1CC[C@H]2[C@@H]3CC=C4C[C@@H](OC(=O)C*)CC[C@]4(C)[C@H]3CC[C@]12C

In the assay the test system is SARS-CoV-2 PsV. As to conditions: PsV, 72 h.
For `CC[C@H](C)[C@H](NC(=O)[C@H](C)NC(=O)[C@H](CCC(=O)O)NC(=O)[C@H](CCC(=O)O)NC(=O)[C@H](CC(C)C)NC(=O)[C@H](CCCCN)NC(=O)[C@H](CCCCN)NC(=O)[C@H](CCSC)NC(=O)[C@H](CCC(=O)O)NC(=O)[C@H](Cc1ccc(O)cc1)NC(=O)[C@H](CCC(=O)O)NC(=O)[C@H](CC(C)C)NC(=O)[C@H](CC(=O)O)NC(=O)[C@H](CC(C)C)NC(=O)[C@H](Cc1ccccc1)NC(=O)[C@@H](NC(=O)[C@@H](NC(=O)[C@H](CC(N)=O)NC(=O)[C@@H](NC(=O)[C@H](CCC(N)=O)NC(=O)[C@H](CC(=O)O)NC(=O)[C@H](CC(C)C)NC(=O)[C@@H](N)CO)[C@@H](C)CC)C(C)C)[C@@H](C)O)C(=O)N[C@@H](CCCCN)C(=O)N[C@@H](CCCCN)C(=O)N[C@@H](CC(C)C)C(=O)N[C@@H](CCC(=O)O)C(=O)N[C@@H](CCC(=O)O)C(=O)N[C@@H](CO)C(=O)N[C@@H](Cc1ccc(O)cc1)C(=O)N[C@H](C(=O)N[C@@H](CC(=O)O)C(=O)N[C@@H](CC(C)C)C(=O)N[C@@H](CCCCN)C(=O)N[C@@H](CCC(=O)O)C(=O)N[C@@H](CC(C)C)C(=O)NCC(=O)N[C@@H](CO)C(=O)NCC(=O)N[C@@H](CO)C(=O)NCC(=O)NCCOCCOCCOCCOCCOCCOCCOCCOCCOCCOCCOCCOCCC(=O)N[C@@H](CSCC(=O)O[C@H]1CC[C@@]2(C)C(=CC[C@H]3[C@@H]4CC[C@H]([C@H](C)CCCC(C)C)[C@@]4(C)CC[C@@H]32)C1)C(N)=O)[C@@H](C)CC` [EK1C6], half-maximal inhibition (IC50) required 77.4 nM.

With `CC[C@H](C)[C@H](NC(=O)[C@H](C)NC(=O)[C@H](CCC(=O)O)NC(=O)[C@H](CCC(=O)O)NC(=O)[C@H](CC(C)C)NC(=O)[C@H](CCCCN)NC(=O)[C@H](CCCCN)NC(=O)[C@H](CCSC)NC(=O)[C@H](CCC(=O)O)NC(=O)[C@H](Cc1ccc(O)cc1)NC(=O)[C@H](CCC(=O)O)NC(=O)[C@H](CC(C)C)NC(=O)[C@H](CC(=O)O)NC(=O)[C@H](CC(C)C)NC(=O)[C@H](Cc1ccccc1)NC(=O)[C@@H](NC(=O)[C@@H](NC(=O)[C@H](CC(N)=O)NC(=O)[C@@H](NC(=O)[C@H](CCC(N)=O)NC(=O)[C@H](CC(=O)O)NC(=O)[C@H](CC(C)C)NC(=O)[C@@H](N)CO)[C@@H](C)CC)C(C)C)[C@@H](C)O)C(=O)N[C@@H](CCCCN)C(=O)N[C@@H](CCCCN)C(=O)N[C@@H](CC(C)C)C(=O)N[C@@H](CCC(=O)O)C(=O)N[C@@H](CCC(=O)O)C(=O)N[C@@H](CO)C(=O)N[C@@H](Cc1ccc(O)cc1)C(=O)N[C@H](C(=O)N[C@@H](CC(=O)O)C(=O)N[C@@H](CC(C)C)C(=O)N[C@@H](CCCCN)C(=O)N[C@@H](CCC(=O)O)C(=O)N[C@@H](CC(C)C)C(=O)NCC(=O)N[C@@H](CO)C(=O)NCC(=O)N[C@@H](CSCC(=O)O[C@H]1CC[C@@]2(C)C(=CC[C@H]3[C@@H]4CC[C@H]([C@H](C)CCCC(C)C)[C@@]4(C)CC[C@@H]32)C1)C(N)=O)[C@@H](C)CC` [EK1C2], half-maximal inhibition (IC50) required 419 nM.

Turning to `CC[C@H](C)[C@H](NC(=O)[C@H](C)NC(=O)[C@H](CCC(=O)O)NC(=O)[C@H](CCC(=O)O)NC(=O)[C@H](CC(C)C)NC(=O)[C@H](CCCCN)NC(=O)[C@H](CCCCN)NC(=O)[C@H](CCSC)NC(=O)[C@H](CCC(=O)O)NC(=O)[C@H](Cc1ccc(O)cc1)NC(=O)[C@H](CCC(=O)O)NC(=O)[C@H](CC(C)C)NC(=O)[C@H](CC(=O)O)NC(=O)[C@H](CC(C)C)NC(=O)[C@H](Cc1ccccc1)NC(=O)[C@@H](NC(=O)[C@@H](NC(=O)[C@H](CC(N)=O)NC(=O)[C@@H](NC(=O)[C@H](CCC(N)=O)NC(=O)[C@H](CC(=O)O)NC(=O)[C@H](CC(C)C)NC(=O)[C@@H](N)CO)[C@@H](C)CC)C(C)C)[C@@H](C)O)C(=O)N[C@@H](CCCCN)C(=O)N[C@@H](CCCCN)C(=O)N[C@@H](CC(C)C)C(=O)N[C@@H](CCC(=O)O)C(=O)N[C@@H](CCC(=O)O)C(=O)N[C@@H](CO)C(=O)N[C@@H](Cc1ccc(O)cc1)C(=O)N[C@H](C(=O)N[C@@H](CC(=O)O)C(=O)N[C@@H](CC(C)C)C(=O)N[C@@H](CCCCN)C(=O)N[C@@H](CCC(=O)O)C(=O)N[C@@H](CC(C)C)C(=O)NCC(=O)N[C@@H](CO)C(=O)NCC(=O)N[C@@H](CO)C(=O)NCC(=O)NCCOCCOCCOCCOCCOCCOCCOCCOCCOCCOCCOCCOCCOCCOCCOCCOCCOCCOCCOCCOCCOCCOCCOCCOCCC(=O)N[C@@H](CSCC(=O)O[C@H]1CC[C@@]2(C)C(=CC[C@H]3[C@@H]4CC[C@H]([C@H](C)CCCC(C)C)[C@@]4(C)CC[C@@H]32)C1)C(N)=O)[C@@H](C)CC` [EK1C7], inhibition was half-maximal at 84.4 nM (IC50).

`CC[C@H](C)[C@H](NC(=O)[C@H](C)NC(=O)[C@H](CCC(=O)O)NC(=O)[C@H](CCC(=O)O)NC(=O)[C@H](CC(C)C)NC(=O)[C@H](CCCCN)NC(=O)[C@H](CCCCN)NC(=O)[C@H](CCSC)NC(=O)[C@H](CCC(=O)O)NC(=O)[C@H](Cc1ccc(O)cc1)NC(=O)[C@H](CCC(=O)O)NC(=O)[C@H](CC(C)C)NC(=O)[C@H](CC(=O)O)NC(=O)[C@H](CC(C)C)NC(=O)[C@H](Cc1ccccc1)NC(=O)[C@@H](NC(=O)[C@@H](NC(=O)[C@H](CC(N)=O)NC(=O)[C@@H](NC(=O)[C@H](CCC(N)=O)NC(=O)[C@H](CC(=O)O)NC(=O)[C@H](CC(C)C)NC(=O)[C@@H](N)CO)[C@@H](C)CC)C(C)C)[C@@H](C)O)C(=O)N[C@@H](CCCCN)C(=O)N[C@@H](CCCCN)C(=O)N[C@@H](CC(C)C)C(=O)N[C@@H](CCC(=O)O)C(=O)N[C@@H](CCC(=O)O)C(=O)N[C@@H](CO)C(=O)N[C@@H](Cc1ccc(O)cc1)C(=O)N[C@H](C(=O)N[C@@H](CC(=O)O)C(=O)N[C@@H](CC(C)C)C(=O)N[C@@H](CCCCN)C(=O)N[C@@H](CCC(=O)O)C(=O)N[C@@H](CC(C)C)C(=O)N[C@@H](CSCC(=O)O[C@H]1CC[C@@]2(C)C(=CC[C@H]3[C@@H]4CC[C@H]([C@H](C)CCCC(C)C)[C@@]4(C)CC[C@@H]32)C1)C(N)=O)[C@@H](C)CC` [EK1C1] (H-SLDQINVTFLDLEYEMKKLEEAIKKLEESYIDLKELC(X1)-NH2) had an IC50 of 480 nM.

In turn, `CC[C@H](C)[C@H](NC(=O)[C@H](C)NC(=O)[C@H](CCC(=O)O)NC(=O)[C@H](CCC(=O)O)NC(=O)[C@H](CC(C)C)NC(=O)[C@H](CCCCN)NC(=O)[C@H](CCCCN)NC(=O)[C@H](CCSC)NC(=O)[C@H](CCC(=O)O)NC(=O)[C@H](Cc1ccc(O)cc1)NC(=O)[C@H](CCC(=O)O)NC(=O)[C@H](CC(C)C)NC(=O)[C@H](CC(=O)O)NC(=O)[C@H](CC(C)C)NC(=O)[C@H](Cc1ccccc1)NC(=O)[C@@H](NC(=O)[C@@H](NC(=O)[C@H](CC(N)=O)NC(=O)[C@@H](NC(=O)[C@H](CCC(N)=O)NC(=O)[C@H](CC(=O)O)NC(=O)[C@H](CC(C)C)NC(=O)[C@@H](N)CO)[C@@H](C)CC)C(C)C)[C@@H](C)O)C(=O)N[C@@H](CCCCN)C(=O)N[C@@H](CCCCN)C(=O)N[C@@H](CC(C)C)C(=O)N[C@@H](CCC(=O)O)C(=O)N[C@@H](CCC(=O)O)C(=O)N[C@@H](CO)C(=O)N[C@@H](Cc1ccc(O)cc1)C(=O)N[C@H](C(=O)N[C@@H](CC(=O)O)C(=O)N[C@@H](CC(C)C)C(=O)N[C@@H](CCCCN)C(=O)N[C@@H](CCC(=O)O)C(=O)N[C@@H](CC(C)C)C(=O)NCC(=O)N[C@@H](CO)C(=O)NCC(=O)N[C@@H](CO)C(=O)NCC(=O)NCCOCCOCCOCCOCCOCCOCCOCCOCCC(=O)N[C@@H](CSCC(=O)O[C@H]1CC[C@@]2(C)C(=CC[C@H]3[C@@H]4CC[C@H]([C@H](C)CCCC(C)C)[C@@]4(C)CC[C@@H]32)C1)C(N)=O)[C@@H](C)CC` [EK1C5] gave an IC50 of 31.3 nM.

For the origin of these results see publication PMC7104723 (Cell Research, 2020).
